Measurements taken from patent publication US7879876B2, “Sulfonamide derivatives and use thereof for the modulation of metalloproteinases” (Merck Serono SA, priority 2005, dated 2011).

How the values were obtained:
Assay type in all cases: biochemical
[1] = target: human ADAM17 (TACE) (Homo sapiens, UniProt P78536); experiment: TACE enzyme inhibition assay
Description: (§1) Compounds of the invention were tested to assess their activities as inhibitors of MMP-1, MMP-2, MMP-9, MMP-14, MMP-12 and TACE. MMP-9 Assay Protocol
Compounds of the invention can be tested for inhibitory activity against human ADAM17 in an assay using human Mca-(endo-1a-Dap(Dnp)-TNF-alpha(−5 to +6)amide as substrate (FEBS Letters, 2000, 275-279).
Stock solutions are prepared as followed: • Assay Buffer: 20 mM Hepes pH 7.5 (Fluka) containing 0.05% Brij 35 (Fluka) • Substrate: 6.1 mM human Mca-(endo-1a-Dap(Dnp)-TNF-alpha(−5 to +6)amide (Bachem) stock solution in 100% DMSO (stored at −20° C.); diluted to 5 μM in assay buffer. • Enzyme: Recombinant human ADAM17, appropriately diluted in assay buffer (1.5 μg/ml).
Test Compounds are prepared initially as 10 mM compound solution in 100% DMSO, diluted to 1 mM in 100% DMSO, then serially diluted 3-fold in 100% DMSO across a 96-well microtitre plate. Assay concentration range is typically between 100 μM to 0.01 nM. The assay is performed in a total volume of 100 μL per well in 96-well microtitre plates. Appropriate concentrations of test compounds dissolved in 10 μL of DMSO are added to the wells, followed by substrate solution (50 μL, 5 μM prepared by dilution of DMSO stock in assay buffer) and enzyme solution (40 μL). For each as say ten concentrations of test compound are examined in […]. Control wells lack either enzyme or test compound. The reactions are incubated at room temperature for 1.5 hours. The fluorescence at 405 nm is measured immediately with a fluorometer using 355 nm excitation, without stopping the reaction.
(§2) The effect of the test compound is determined from the dose response curve generated by the 10 duplicate concentrations of inhibitor. The IC50 (the concentration of compound required to give a 50% decrease in enzyme activity) is obtained by fitting data to the equation, Y=a+((b−a)/(1+(c/X)^d)). (Y=inhibition achieved for a particular dose; X=the dose in nM; a=minimum y or zero % inhibition; b=maximum y or 100% inhibition; c=is the IC50; d=is the slope). The result is rounded to one significant figure.

[2] = target: 92 kDa gelatinase (MMP-9) (Homo sapiens, UniProt P14780); experiment: MMP-9 enzyme inhibition assay (coumarin-labeled peptide substrate); conditions: for inhibition at 5 µM: read-out: percentage inhibition MMP9; for IC50: read-out: IC50 MMP9
92 kDa gelatinase (MMP-9), sequence (P14780 107-707 limits assumed): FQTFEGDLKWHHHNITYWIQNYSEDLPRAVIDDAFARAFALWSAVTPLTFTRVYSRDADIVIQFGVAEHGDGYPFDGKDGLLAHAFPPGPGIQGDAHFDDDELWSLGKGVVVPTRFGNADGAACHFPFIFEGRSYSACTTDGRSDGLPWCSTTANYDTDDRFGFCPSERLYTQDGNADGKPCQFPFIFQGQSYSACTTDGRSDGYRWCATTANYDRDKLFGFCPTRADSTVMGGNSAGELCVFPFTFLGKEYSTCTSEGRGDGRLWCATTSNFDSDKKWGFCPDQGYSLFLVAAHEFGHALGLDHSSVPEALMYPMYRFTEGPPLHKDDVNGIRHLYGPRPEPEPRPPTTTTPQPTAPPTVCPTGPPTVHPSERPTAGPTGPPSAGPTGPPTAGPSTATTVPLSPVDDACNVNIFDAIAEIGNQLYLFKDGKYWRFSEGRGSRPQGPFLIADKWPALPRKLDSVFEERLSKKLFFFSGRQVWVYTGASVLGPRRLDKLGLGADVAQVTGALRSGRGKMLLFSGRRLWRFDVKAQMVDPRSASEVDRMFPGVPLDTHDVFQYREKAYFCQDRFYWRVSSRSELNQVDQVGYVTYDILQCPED
Description: as §1
(§3) Compounds of the invention were tested for inhibitory activity against 92 kDa gelatinase (MMP-9) in an assay using a coumarin-labeled peptide substrate, (7-methoxycoumarin-4-yl)acetyl-Pro-Leu-Gly-Leu-(3-[2,4-dinitrophenyl]-L-2,3diaminopropionyl)-Ala-Arg-NH2 (McaPLGLDpaAR) (Knight et al, FEBS Lett. 1992; 263-266).
(§4) Stock solutions were made up as follows: Assay Butter: 100 mM Tris-HCl pH 7.6 containing 100 mM NaCl, 10 mM CaCl2, and 0.05% Brij 35.
(§5) Substrate: 0.4 mM McaPLGLDpaAR (from Bachem) (0.437 mg/ml) stock solution in 100% DMSO (stored at −20° C.). Dilute to 8 μM in assay butter.
(§6) Enzyme: Recombinant human 92 kDa gelatinase (MMP-9; APMA (4-aminophenyl mercuric acetate)-activated if necessary) appropriately diluted in assay butter.
(§7) Test Compounds were prepared initially as 10 mM compound solution in 100% DMSO, diluted to 1 mM in 100% DMSO, then serially diluted 3-fold in 100% DMSO across columns 1-10 of a 96-well microtitre plate Assay concentration range, 100 μM (column 1) to 5.1 nM (column 10).
(§8) The assay was performed in a total volume of 100 μL per well in 96-well microtitre plates. Activated enzyme (20 μL) was added to the wells followed by 20 μL of assay butter. Appropriate concentrations of test compounds dissolved in 10 μL of DMSO were then added followed by 50 μL of McaPLGLDpaAR (8 μM, prepared by dilution of DMSO stock in assay butter). For each as say ten concentrations of test compound were examined in duplicate. Control wells lack either enzyme or test compound. The reactions were incubated at 37° C. for 2 hours. The fluorescence at 405 nm was measured immediately with an SLT Fluostar fluorometer (SL T Labinstruments GmbH, Grödig, Austria) using 320 nm excitation, without stopping the reaction.
as §2, with “compound was” for “compound is”, “activity) was” for “activity) is”, “result was” for “result is”

[3] = target: metalloelastase (MMP-12) (Homo sapiens, UniProt P39900); experiment: MMP-12 enzyme inhibition assay (coumarin-labelled peptide substrate); conditions: read-out: IC50 MMP12
metalloelastase (MMP-12), sequence (P39900 106-470): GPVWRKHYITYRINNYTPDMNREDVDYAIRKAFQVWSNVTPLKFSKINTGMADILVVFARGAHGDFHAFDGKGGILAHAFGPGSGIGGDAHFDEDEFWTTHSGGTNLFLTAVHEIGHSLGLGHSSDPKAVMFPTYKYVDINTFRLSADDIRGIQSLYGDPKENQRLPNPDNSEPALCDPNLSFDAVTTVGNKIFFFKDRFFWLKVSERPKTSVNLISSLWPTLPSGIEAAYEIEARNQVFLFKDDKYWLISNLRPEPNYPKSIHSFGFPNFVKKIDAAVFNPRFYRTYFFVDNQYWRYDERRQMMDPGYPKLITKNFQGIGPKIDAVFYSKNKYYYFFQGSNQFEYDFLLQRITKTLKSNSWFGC
Description: as §1, §3, §4, §5, §6, §7, §8
as §2, with “compound was” for “compound is”, “activity) was” for “activity) is”, “result was” for “result is”
Compounds of the invention were tested for inhibitory activity against metalloelastase (MMP-12) in an assay using a coumarin-labelled peptide substrate, (7-methoxycoumarin-4-yl)acetyl-Pro-Leu-Gly-Leu-(3-[2,4-dinitrophenyl]-L-2,3-diaminopropionyl)-Ala-Arg-NH2 (McaPLGLDpaAR) (Knight et al, 1992, above). The protocol for this assay was as described for the MMP-9 assay above.

human ADAM17 (TACE), sequence (P78536 215-824): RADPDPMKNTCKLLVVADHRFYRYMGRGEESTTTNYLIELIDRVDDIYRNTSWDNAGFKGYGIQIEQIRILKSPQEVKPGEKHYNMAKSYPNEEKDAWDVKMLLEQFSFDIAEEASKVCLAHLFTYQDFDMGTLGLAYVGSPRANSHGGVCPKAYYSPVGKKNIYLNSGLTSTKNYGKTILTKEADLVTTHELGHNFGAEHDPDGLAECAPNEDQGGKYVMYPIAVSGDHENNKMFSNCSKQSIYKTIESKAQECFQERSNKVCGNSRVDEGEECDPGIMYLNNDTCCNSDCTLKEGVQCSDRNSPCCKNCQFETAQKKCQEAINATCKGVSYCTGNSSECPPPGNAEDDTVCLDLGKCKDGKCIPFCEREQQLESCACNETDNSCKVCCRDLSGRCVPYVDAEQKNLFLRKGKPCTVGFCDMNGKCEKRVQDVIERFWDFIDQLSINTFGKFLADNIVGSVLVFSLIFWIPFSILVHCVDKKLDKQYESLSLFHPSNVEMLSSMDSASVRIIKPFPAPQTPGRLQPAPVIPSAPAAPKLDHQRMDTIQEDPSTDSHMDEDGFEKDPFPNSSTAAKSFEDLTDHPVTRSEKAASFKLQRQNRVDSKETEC

SMILES | IC50 [1] | inhibition at 5 µM [2] | IC50 [3] | IC50 [2]
O=CN(O)C(CCC(F)(F)F)CS(=O)(=O)N1CCc2ccc(Cl)cc2C1 (stereo not drawn) [Example 76, N-(1-{[(7-chloro-3,4-dihydroisoquinolin-2(1H)-yl)-sulfonyl]methyl}-4,4,4-trifluorobutyl)-N-hydroxyformamide] | 115 nM | 14% | 22 nM | –
CCC(CC)C(CS(=O)(=O)N1CCc2ccc(Br)cc2C1)N(O)C=O (stereo not drawn) [Example 36, N-(1-{[(7-bromo-3,4-dihydroisoquinolin-2(1H)-yl)sulfonyl]-methyl}-2-ethylbutyl)-N-hydroxyformamide] | 228 nM | 37% | 5.7 nM | –
CC(C)(C)CC(CS(=O)(=O)N1CCc2cc(Cl)c(Cl)cc2C1)N(O)C=O (stereo not drawn) [Example 42, N-(1-{[(6,7-dichloro-3,4-dihydroisoquinolin-2(1H)-yl)-sulfonyl]methyl}-3,3-dimethylbutyl)-N-hydroxyformamide] | 611 nM | 35% | 4.4 nM | –
COc1ccc(C(CS(=O)(=O)N2CCc3ccccc3C2)N(O)C=O)cn1 (stereo not drawn) [Example 13, N-[2-(3,4-dihydroisoquinolin-2(1H)-ylsulfonyl)-1-(6-methoxypyridin-3-yl)ethyl]-N-hydroxyformamide] | 40 nM | – | 10 nM | > 5000 nM
CC(C)(CS(=O)(=O)N1CCc2ccc(Br)cc2C1)N(O)C=O [Example 56, N-{2-[(7-bromo-3,4-dihydroisoquinolin-2(1H)-yl)sulfonyl]-1,1-dimethylethyl}-N-hydroxyformamide] | > 5000 nM | 2% | 51 nM | –
CC1(C)OC[C@H](C(CS(=O)(=O)N2CCc3ccc(C(F)(F)F)cc3C2)N(O)C=O)O1 (stereo partly drawn) [Example 28, N-(1-[(4S)-2,2-dimethyl-1,3-dioxolan-4-yl]-2-{[7-(trifluoro-methyl)-3,4-dihydroisoquinolin-2(1H)-yl]sulfonyl}ethyl)-N-hydroxyformamide] | 1280 nM | 21% | 3.9 nM | –
O=CN(O)C(CS(=O)(=O)N1CCc2ccc(C(F)(F)F)cc2C1)C1CCCC1 (stereo not drawn) [Example 82, N-(1-cyclopentyl-2-{[7-(trifluoromethyl)-3,4-dihydro-isoquinolin-2(1H)-yl]sulfonyl}ethyl)-N-hydroxyformamide] | > 5000 nM | 0% | 26 nM | –
O=CN(O)C1(CS(=O)(=O)N2CCc3ccc(Cl)cc3C2)CCCC1 [Example 62, N-(1-{[(7-chloro-3,4-dihydroisoquinolin-2(1H)-yl)-sulfonyl]methyl}cyclopentyl)-N-hydroxyformamide] | 882 nM | 1% | 36 nM | –
CC(C)CC(CS(=O)(=O)N1CCc2ccc(Br)cc2C1)N(O)C=O (stereo not drawn) [Example 55, N-(1-{[(7-bromo-3,4-dihydroisoquinolin-2(1H)-yl)-sulfonyl]methyl}-3-methylbutyl)-N-hydroxyformamide] | 157 nM | 39% | 6 nM | –
CC(C)c1ccc2c(c1)CCN(S(=O)(=O)C[C@H]([C@H]1CCCO1)N(O)C=O)C2 [Example 45, N-hydroxy-N-{(1S)-2-[(6-isopropyl-3,4-dihydroisoquinolin-2(1H)-yl)sulfonyl]-1-[(2R)-tetrahydrofuran-2-yl]ethyl}formamide] | 813 nM | 47% | 1.5 nM | –
O=CN(O)C(CS(=O)(=O)N1CCc2ccc(-c3ccncc3)cc2C1)C1CCCC1 (stereo not drawn) [Example 79, N-{1-cyclopentyl-2-[(7-pyridin-4-yl-3,4-dihydroisoquinolin-2(1H)-yl)sulfonyl]ethyl}-N-hydroxyformamide] | 587 nM | 57% | 2 nM | –
CC(C)c1ccc2c(c1)CCN(S(=O)(=O)CC([C@H]1COC(C)(C)O1)N(O)C=O)C2 (stereo partly drawn) [Example 18, N-{1-[(4S)-2,2-dimethyl-1,3-dioxolan-4-yl]-2-[(6-isopropyl-3,4-dihydroisoquinolin-2(1H)-yl)sulfonyl]ethyl}-N-hydroxyformamide] | 640 nM | – | 1.4 nM | > 5000 nM
